Values of other authors, collected in patent publication US20150174235A1, “VACCINE” (Bionor Immuno AS, priority 2012, published 2015).

System: HIV-specific T-cells
Conditions: for IL-2 production by CD8 T-cells / lytic capacity of polyfunctional HIV specific CD8+ T cells / number of polyfunctional CD4+ T-cells / proliferation of CD4+ T cells / Gag antigen epitopes recognized: IMiD present during in vitro T-cell stimulation; for Gag antigen epitopes recognized: also at lower antigen peptide concentrations; for IFN-γ production by CD8+ T-cells and CD4 T-cells: after antigen stimulation, IMiD present

Structure (SMILES)	IL-2 production by CD8 T-cells	lytic capacity of polyfunctional HIV specific CD8+ T cells	number of polyfunctional CD4+ T-cells	proliferation of CD4+ T cells	Gag antigen epitopes recognized	IFN-γ production by CD8+ T-cells and CD4 T-cells
Nc1cccc2c1CN(C1CCC(=O)NC1=O)C2=O (stereo not drawn) [Lenalidomide]	increased	enhanced	increased	reduced	more	detectable
Nc1cccc2c1C(=O)N(C1CCC(=O)NC1=O)C2=O (stereo not drawn) [pomalidomide]	increased	enhanced	increased	reduced	more	detectable
